Like-named read-outs stand apart in the source and are kept apart here.
How the values were obtained:
[1] = test system: ECFC/ADSC co-culture cell nuclei number
HeLa cells = assay: cells; type: cell-based;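 on Hela CellCycMod PI 4N summarized IC50: value tracks stimulation of 4N DNA content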
[2] = test system: endothelial tube formation in co-cultures of ECFCs and ADSCs treated with VEGF; assay: cells; type: cell-based, human

Row | Structure (SMILES) | VEGF_ADSC\ECFC Angio Hoechst NucArea IC50/EC50 [1] [µM] | Hela CellCycMod PI 2N IC50/EC50 (HeLa cells; assay number 14, 2N) [µM] | Hela CellCycMod PI S Phase IC50/EC50 (HeLa cells; assay number 15, S phase) [µM] | Hela CellCycMod PI 4N IC50/EC50 (HeLa cells; assay number 16, 4N) [µM] | Hela CellCycMod PI MI IC50/EC50 (HeLa cells; assay number 17, MI) [µM] | Hela CellCycMod PI Cell Number IC50/EC50 (HeLa cells; assay number 18, cell number) [µM] | VEGF_ADSC\ECFC Angio CD31 TubeArea IC50/EC50 [2] [µM] | further results
1 | C[C@]12CC[C@@H]3c4ccc(O)cc4CC[C@H]3[C@@H]1CC[C@@H]2OC(=O)CCC1CCCC1 [NCGC00166134-02] | > 10 | > 10 | > 10 | > 10 | > 10 | > 10 | 6.3667 | 
2 | CCCCCCC[N+](CC)(CC)CCCCc1ccc(Cl)cc1.Cc1ccc(S(=O)(=O)[O-])cc1 [NCGC00168464-04] |  |  |  |  |  |  |  | IC50/EC50, VEGF_ADSC\ECFC Angio Hoechst NucArea (assay number 3) [1]: > 10 µM; IC50/EC50, Hela CellCycMod PI 2N (assay number 14) (HeLa cells; 2N): > 10 µM; IC50/EC50, Hela CellCycMod PI 4N (assay number 16) (HeLa cells; 4N): > 10 µM; IC50/EC50, Hela CellCycMod PI Cell Number (assay number 18) (HeLa cells): > 10 µM; IC50/EC50, Hela CellCycMod PI MI (assay number 17) (HeLa cells; MI): > 10 µM; IC50/EC50, VEGF_ADSC\ECFC Angio CD31 TubeArea (assay number 2) [2]: 6.3375 µM
3 | CC(=O)N(O)CCCCCNC(=O)CCC(=O)N(O)CCCCCNC(=O)CCC(=O)N(O)CCCCCN [NCGC00178802-06] |  |  |  |  |  |  |  | IC50/EC50, VEGF_ADSC\ECFC Angio Hoechst NucArea (assay number 3) [1]: > 10 µM; IC50/EC50, Hela CellCycMod PI 2N (assay number 14) (HeLa cells; 2N): > 10 µM; IC50/EC50, Hela CellCycMod PI 4N (assay number 16) (HeLa cells; 4N): > 10 µM; IC50/EC50, Hela CellCycMod PI Cell Number (assay number 18) (HeLa cells): > 10 µM; IC50/EC50, Hela CellCycMod PI MI (assay number 17) (HeLa cells; MI): > 10 µM; IC50/EC50, Hela CellCycMod PI S Phase (assay number 15) (HeLa cells; S Phase): > 10 µM; IC50/EC50, VEGF_ADSC\ECFC Angio CD31 TubeArea (assay number 2) [2]: 4.5338 µM
4 | C[C@@H]1C[C@H]2[C@@H]3CCC4=CC(=O)C=C[C@]4(C)[C@@]3(Cl)[C@@H](O)C[C@]2(C)[C@@]1(OC(=O)c1ccco1)C(=O)CCl [NCGC00179578-03] | > 10 | > 10 | > 10 | > 10 | > 10 |  | 4.9886 | 
5 | O=c1[nH]c(=O)n([C@H]2C[C@H](O)[C@@H](CO)O2)cc1I [NCGC00179673-03] |  |  |  |  |  |  |  | IC50 ([1]; read-out: VEGF_ADSC\ECFC Angio Hoechst NucArea summarized IC50): > 10 µM; IC50 (HeLa cells; assay number 14, 2N, read-out: Hela CellCycMod PI 2N summarized IC50): > 10 µM; IC50 (HeLa cells; assay number 15, S phase, read-out: Hela CellCycMod PI S Phase summarized IC50): > 10 µM; IC50 (HeLa cells; assay number 16, 4N, read-out: Hela CellCycMod PI 4N summarized IC50): > 10 µM; IC50 (HeLa cells; assay number 17, MI, read-out: Hela CellCycMod PI MI summarized IC50): > 10 µM; IC50 (HeLa cells; assay number 18, cell number, read-out: Hela CellCycMod PI Cell Number summarized IC50): > 10 µM; IC50 ([2]; read-out: VEGF_ADSC\ECFC Angio CD31 TubeArea summarized IC50): 681 nM
6 | Clc1ccc(Nc2nnc(Cc3ccncc3)c3ccccc23)cc1 [NCGC00181350-03] | > 10 | > 10 | > 10 | > 10 | > 10 | > 10 | 0.1109 | 
7 | Nc1nc(F)nc2c1ncn2[C@@H]1O[C@H](CO)[C@@H](O)[C@@H]1O [NCGC00182047-03] | > 10 | > 10 | > 10 | > 10 | > 10 | > 10 | 8.4496 | 
8 | CC(=O)Nc1ccn(C2COC(COC(=O)c3ccccc3)O2)c(=O)n1 (stereo not shown) [NCGC00183850-01] | > 10 | > 10 | 0.312 | > 10 | > 10 | 0.2813 | 2.3271 | 
9 | CC(C)OC(=O)OCOP(=O)(CO[C@H](C)Cn1cnc2c(N)ncnc21)OCOC(=O)OC(C)C.O=C(O)/C=C/C(=O)O [NCGC00183876-03] | > 10 | > 10 |  | > 10 | > 10 | 0.2888 | 3.8408 | 
10 | Cc1ccc(Nc2nccc(N(C)c3ccc4c(C)n(C)nc4c3)n2)cc1S(N)(=O)=O [NCGC00188865-03] | > 10 | > 10 | > 10 | > 10 | > 10 | > 10 | 0.0465 | 
11 | CC(C)=CCC/C(C)=C/CC/C(C)=C/C(=O)OCC(=O)[C@@]1(O)CC[C@H]2[C@@H]3CCC4=CC(=O)C=C[C@]4(C)[C@H]3[C@@H](O)C[C@@]21C [NCGC00261967-01] | > 10 | > 10 | > 10 | > 10 | > 10 | 0.05952 | 3.3384 | 
12 | CCCCCCCCCCCCCCCCNc1ccc(C(=O)O)cc1 [NCGC00261985-01] | > 10 | > 10 |  | > 10 | > 10 | > 10 | 0.3673 | 
13 | Nc1nc(=O)n([C@@H]2O[C@H](CO)[C@@H](O)[C@@H]2F)cc1I [NCGC00262963-01] | > 10 | > 10 | > 10 | > 10 | > 10 | 8.504 | 3.4717 | 
14 | CO[C@@H]1[C@@H](OC)[C@H](C)[C@@](O)(CC(=O)O)O[C@H]1[C@H](C)[C@H]1O[C@@]2(CC[C@@](C)([C@H]3CC[C@@](C)([C@@H]4O[C@@H]([C@H]5O[C@](C)(O)[C@H](C)C[C@@H]5C)C[C@@H]4OC4C[C@H](OC)[C@@H](OC)[C@H](C)O4)O3)O2)C[C@H](O)[C@H]1C.N (stereo partly shown) [NCGC00263563-01] | 2.568 | > 10 | > 10 | > 10 | > 10 | 2.751 | 0.2517 | 
